Results reported in PubChem BioAssay AID1963974 (Molecular Pharmacology Branch, DTP, NCI, 2024).

System: 648629-189-R-J1-PDC spheroids with HUVEC/MSC, viability
Experiment: Anticancer human tumor 648629-189-R-J1-PDC patient-derived bladder carcinoma cell line growth inhibition [PI3K]
Settings: for IC50: curve of first compound; for viability, T/C: stronger effect = lower value
Procedure, shortened: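 Three cell types, namely tumor cells, endothelial cells and mesenchymal stem cells, formed each spheroid. Combinations with four PI3K inhibitors were screened at clinically achievable concentrations decreasing by half-log, and spheroid viability was recorded.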

[1] = second compound 0.0316 µM, first compound 0.0316 µM
[2] = second compound 0.0316 µM, first compound 0.1 µM
[3] = second compound 0.0316 µM, first compound 0.316 µM
[4] = second compound 0.0316 µM, first compound 1 µM
[5] = second compound 0.0316 µM, first compound 3.16 µM
[6] = second compound 0.0316 µM, first compound 10 µM
[7] = second compound 0.1 µM, first compound 0.0316 µM
[8] = second compound 0.1 µM, first compound 0.1 µM
[9] = second compound 0.1 µM, first compound 0.316 µM
[10] = second compound 0.1 µM, first compound 1 µM
[11] = second compound 0.1 µM, first compound 3.16 µM
[12] = second compound 0.1 µM, first compound 10 µM
[13] = second compound 0.316 µM, first compound 0.0316 µM
[14] = second compound 0.316 µM, first compound 0.1 µM
[15] = second compound 0.316 µM, first compound 0.316 µM
[16] = second compound 0.316 µM, first compound 1 µM
[17] = second compound 0.316 µM, first compound 3.16 µM
[18] = second compound 0.316 µM, first compound 10 µM
[19] = second compound 1 µM, first compound 0.0316 µM
[20] = second compound 1 µM, first compound 0.1 µM
[21] = second compound 1 µM, first compound 0.316 µM
[22] = second compound 1 µM, first compound 1 µM
[23] = second compound 1 µM, first compound 3.16 µM
[24] = second compound 1 µM, first compound 10 µM
[25] = second compound 3.16 µM, first compound 0.0316 µM
[26] = second compound 3.16 µM, first compound 0.1 µM
[27] = second compound 3.16 µM, first compound 0.316 µM
[28] = second compound 3.16 µM, first compound 1 µM
[29] = second compound 3.16 µM, first compound 3.16 µM
[30] = second compound 3.16 µM, first compound 10 µM
[31] = second compound 10 µM, first compound 0.0316 µM
[32] = second compound 10 µM, first compound 0.1 µM
[33] = second compound 10 µM, first compound 0.316 µM
[34] = second compound 10 µM, first compound 1 µM
[35] = second compound 10 µM, first compound 3.16 µM
[36] = second compound 10 µM, first compound 10 µM
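Also: spheroids exposed to agents for seven days before reading.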
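For viability, T/C in this document: percent of vehicle control luminescence where 100% = DMSO treated spheroids.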

With C#Cc1c(F)ccc2cc(O)cc(-c3ncc4c(N5CC6CCC(C5)N6)nc(OCC56CCCN5CC(F)C6)nc4c3F)c12 (centres undefined) + Cc1nc(NC(=O)N2CCCC2C(N)=O)sc1-c1ccnc(C(C)(C)C(F)(F)F)c1 the IC50 (second compound 0.0316 µM) was > 10 µM, the IC50 (second compound 0.1 µM) was > 10 µM and the IC50 (second compound 0.316 µM) was > 10 µM. The IC50 (second compound 1 µM) was > 10 µM, the IC50 (second compound 3.16 µM) was > 10 µM and the IC50 (second compound 10 µM) was < 0.0316 µM. It also gave a viability, T/C [1] of 100%, a viability, T/C [2] of 103% and a viability, T/C [3] of 103%. For the same molecule, the viability, T/C [4] was 99.6%, the viability, T/C [5] was 89.3% and the viability, T/C [6] was 91.3%. For the same molecule, the viability, T/C [7] was 101%, the viability, T/C [8] was 96.8% and the viability, T/C [9] was 97.5%. The viability, T/C [10] was 87.4%, the viability, T/C [11] was 95.1% and the viability, T/C [12] was 91.4%. The viability, T/C [13] was 90.7%, the viability, T/C [14] was 88.1% and the viability, T/C [15] was 87%. For the same molecule, the viability, T/C [16] was 86.1%, the viability, T/C [17] was 80.4% and the viability, T/C [18] was 79.5%. For the same molecule, the viability, T/C [19] was 77.9%, the viability, T/C [20] was 77.4% and the viability, T/C [21] was 77%. It also gave a viability, T/C [22] of 72.4%, a viability, T/C [23] of 68.9% and a viability, T/C [24] of 70.5%. It also gave a viability, T/C [25] of 52.7%, a viability, T/C [26] of 56.1% and a viability, T/C [27] of 55%. For the same molecule, the viability, T/C [28] was 52.7%, the viability, T/C [29] was 50.6% and the viability, T/C [30] was 54.9%. For the same molecule, the viability, T/C [31] was 36.3%, the viability, T/C [32] was 34.2% and the viability, T/C [33] was 34.5%. It also gave a viability, T/C [34] of 34.5%, a viability, T/C [35] of 31.2% and a viability, T/C [36] of 5.29%.

For C=CC(=O)N1CCN(c2nc(=O)n(-c3c(C)ccnc3C(C)C)c3nc(-c4c(O)cccc4F)c(F)cc23)C(C)C1 (centres undefined) + Cc1nc(NC(=O)N2CCCC2C(N)=O)sc1-c1ccnc(C(C)(C)C(F)(F)F)c1, the IC50 (second compound 0.0316 µM) was > 10 µM, the IC50 (second compound 0.1 µM) was > 10 µM and the IC50 (second compound 0.316 µM) was > 10 µM. The IC50 (second compound 1 µM) was > 10 µM, the IC50 (second compound 3.16 µM) was > 10 µM and the IC50 (second compound 10 µM) was < 0.0316 µM. For the same molecule, the viability, T/C [1] was 99%, the viability, T/C [2] was 101% and the viability, T/C [3] was 107%. The viability, T/C [4] was 105%, the viability, T/C [5] was 113% and the viability, T/C [6] was 82.8%. It also gave a viability, T/C [7] of 92.2%, a viability, T/C [8] of 102% and a viability, T/C [9] of 107%. It also gave a viability, T/C [10] of 99%, a viability, T/C [11] of 106% and a viability, T/C [12] of 90.3%. The viability, T/C [13] was 83.5%, the viability, T/C [14] was 95% and the viability, T/C [15] was 95.6%. For the same molecule, the viability, T/C [16] was 96.3%, the viability, T/C [17] was 107% and the viability, T/C [18] was 84.7%. The viability, T/C [19] was 73.4%, the viability, T/C [20] was 82.7% and the viability, T/C [21] was 87.5%. For the same molecule, the viability, T/C [22] was 86.5%, the viability, T/C [23] was 88.2% and the viability, T/C [24] was 79.7%. It also gave a viability, T/C [25] of 61.2%, a viability, T/C [26] of 57.5% and a viability, T/C [27] of 65%. For the same molecule, the viability, T/C [28] was 72%, the viability, T/C [29] was 72.5% and the viability, T/C [30] was 70.8%. For the same molecule, the viability, T/C [31] was 39.5%, the viability, T/C [32] was 40.7% and the viability, T/C [33] was 42.4%. It also gave a viability, T/C [34] of 41.5%, a viability, T/C [35] of 47.1% and a viability, T/C [36] of 38.4%.
